# Data reported in patent publication US20240148728A1, “NOVEL METHOD TO BLOCK IN[…] DEATH AND IL-1BETA SECRETION CAUSED BY […] UV I[…] GENETIC AND CHEMICAL INHIBITORS OF ZAKA AND THE NLRP1 INFLAMMASOME” (priority 2021, published 2024).
# Assays:
# Type in all cases: cell-based, human
# N-TERT cells [1] = assay: Secreted IL1β / inflammasome activation in N-TERT cells; conditions: for effect on ANS- and TNFα+DT-triggered NLRP1 activation: N-TERTs, BTZ 0.5 μM, MLN4924 0.25 μM
# Method: (§1) To measure secreted cytokine and chemokine levels a human IL1β enzyme linked immunosorbent assay (ELISA) kit (BD, #557953), human IL-18 ELISA kit (MBL, #7620) or an Immune Monitoring 65-Plex Human ProcartaPlex Panel (EPX650-10065-901) were used according to manufacturer's protocols. Further analysis of Luminex or ELISA profiling of samples was performed using heatmap and PCA analysis on Clustervis (biitdotcsdotutdotee/clustvis/) [Somani et al., Proceeding of SSIC (2019)].
# (§2) The following antibodies were used in this study: cleaved PARP1 (Abclonal, #WH162766), Cleaved CASP3 (Abclonal, #WH154646), Full length GSDMD-FL (Abcam, #ab210070), IL1β p17 specific (CST, #83186S), CARD8 (Abcam, CARD8-NT: ab19485, CARD8-CT: ab241186), DPP9 (Abcam, ab226334), c-Myc (Santa Cruz Biotechnology, #sc-40), HA tag (Santa Cruz Biotechnology, #sc-805), GAPDH (Santa Cruz Biotechnology, #sc-47724), ASC (Adipogen, #AL-177), CASP1 (Santa Cruz Biotechnology, #sc-622), 11_1B (R&D systems, #AF-201), FLAG (SigmaAldrich, #F3165), NLRP1 (R&D systems, #AF6788), IL18 (Abcam ab207324), cleaved GSDMD-NT (Asp275) (Cell Signaling Technology, #36425), RPL31 (Abclonal, #WH162766), CASP7 (Abcam, ab255818), CASP8 (Abcam, ab32397), cleaved CASP3 (Cell Signaling Technology, #9664). All horseradish peroxidase (HRP)— conjugated secondary antibodies were purchased from Jackson Immunoresearch (goat anti-mouse IgG: 115-035-166; goat anti-rabbit IgG: 111-035-144; and donkey anti-goat IgG: 705-005-147). Blue-Native PAGE was carried out using the Native-PAGE system (ThermoFisher) with 10-20 μg of total lysate. For SDS-PAGE using whole cell lysates, cells were resuspended in tris-buffered saline 1% NP-40 with protease inhibitors (Thermo Scientific, #78430). Protein concentration was determined using the Bradford assay (Thermo Scientific, #23200) and […] of protein loaded, a part from cleaved GSDMD-NT visualisation where […] of protein was used. All primary antibodies were used at 250 ng/ml. Visualisation of ASC oligomerization was previously described (Robinson et al., 2020). For analysis of IL1β and IL-18 cleavage in the media by immunoblotting, samples were concentrated using filtered centrifugation (Merck, Amicon Ultra, #UFC5003BIK). Protein samples were run using immunoblotting, and then visualized using a ChemiDoc Imaging system (Bio-Rad). PhosTag SDS-PAGE was carried out using homemade 10% SDS-PAGE gel, with addition of Phos-tag Acrylamide (Wako Chemicals, AAL-107) to a final concentration of 30 μM and manganese chloride(II) (Sigma-Aldrich, #63535) to 60 μM.
# [2] = test system: immortalized keratinocytes (N-TERT); assay: Pyroptosis / apoptosis in N-TERT keratinocytes (morphology, ASC-GFP, PI, Annexin V, immunoblot); conditions: for morphological hallmarks of inflammasome activation and pyroptotic cell death: membrane ballooning, ASC-GFP specks, PI uptake
# From the text: as §2
# N-TERT-ASC-GFP cells were seeded at a cell density of 3000 cells/well of a 96 black well plate (PerkinElmer, CellCarrier-96 Ultra, #6055300). The next morning cells were treated with chemicals for 6 h or treated in the evening for 24 h before staining. 1 hour before observing the cells on the microscope the cells were stained with 1 μg/ml dilution of propidium iodide (PI, Abcam #ab14083), 10 ng/ml dilution of Hoechst 33342 (Life Technologies, #H21492) or stained with Annexin V Alexa Flour 647 (Life technologies, #A23204) according to the manufacturer's protocol. Stained cells were then imaged on a high content screening microscope (Perkin Elmer Operetta CLS imaging system). Images were then stored and analyzed using the Harmony software (Version 6). Fluorescent and brightfield images acquired on the Operetta high content screening microscope were further analyzed using a scoring system to categorize the percentages of live, apoptotic and pyroptotic cells. For 3 fields of view per treatment the number of live cells per field was counted from the merge of the brightfield and ASC-GFP channels. Only cells which contained ASC-GFP throughout the cytoplasm and nucleus were classed as “live”. The number of pyroptotic cells was calculated using the merge of the brightfield and ASC-GFP channels. Only the cells with GFP specks were classed as “pyroptotic”. The number of apoptotic cells was calculated using the merge of the brightfield, ASC-GFP and Annexin V channels. Cells that were stained positive for Annexin V but without a GFP speck were classified as “apoptotic”. Images of ASC-GFP specks were acquired in 3 random fields in 4′,6-diaminidino-2-phenylindole (DAPI, 358 nm/461) and GFP (469 nm/525 nm) channels using the EVOS microscope (FL Auto M5000, #AM F5000) according to the manufacturer's protocol. […]
# 293T-ASC-GFP-NLRP1 = conditions: for ASC-GFP speck formation, screen of cytotoxic chemicals: ANS 1 μM, LTM 1 μg/ml, STS 1 μM; for effect on ANS- and TNFα+DT-triggered NLRP1 activation: 293T-NLRP1-ASC-GFP reporter cells, BTZ 0.5 μM, MLN4924 0.25 μM
# NLRP1-NT = assay: NLRP1 cleavage / NLRP1-NT level by immunoblot
# From the text: as §2
# N-TERT cells [3] = assay: UVB triggered cell death and IL-1beta release in N-TERT cells
# Method: For UVA and UVB irradiation experiments, cells were seeded 24 hours prior to irradiation, and washed once in phosphate buffered saline pH 7.4 before being exposed to indicated dose of irradiation using a BIO-SUN microprocessor controlled, cooled UV irradiation system (BIO-SUN, Vilber). After exposure, PBS was replaced by keratinocyte medium and cells were incubated for indicated time.
# as §1
# NLRP1^DR = assay: NLRP1 PYD-DR1 / NLRP1^DR phosphorylation (GFP fusion, immunoblot, PhosTag SDS-PAGE) in N-TERT cells
# From the text: as §2
# Cells were directly harvested using Laemmli buffer, lysed with an ultrasonicator, and loaded into the Phos-tag gel to run. Once the run was completed, the polyacrylamide gel was washed in transfer buffer with 10 mM EDTA twice, subsequently washed without EDTA twice, blotted onto 0.45 μm PVDF membranes (Bio-rad), blocked with 3% milk, and incubated with primary and corresponding secondary antibodies.
compound,measurement,setting,value
CCCn1/c(=N/C(=O)c2cccc(C(N)=O)c2)[nH]c2ccccc21 [TAKinib],effect on ANS-induced IL1β secretion,N-TERT cells [1]; selective TAK1 inhibitor,does not have an effect on ANS-induced IL1β secretion
"CN(CC[C@H](N)CC(=O)N[C@H]1C=C[C@H](n2ccc(N)nc2=O)O[C@@H]1C(=O)O)C(=N)N [blasticidin, Blasticidin]",morphological hallmarks of inflammasome activation and pyroptotic cell death,[2],"none of the inhibitors that block the ribosome at the pre-elongation stages, including harringtonin, blasticidin and G418 caused any pyroptosis"
"CN[C@@H]1C[C@H]2O[C@@](C)([C@@H]1OC)n1c3ccccc3c3c4c(c5c6ccccc6n2c5c31)C(=O)NC4 [STS, Staurosporine]","ASC-GFP speck formation, screen of cytotoxic chemicals",293T-ASC-GFP-NLRP1,failed to induce ASC-GFP specks
"CC(C)C[C@H](NC(=O)[C@H](Cc1ccccc1)NC(=O)c1cnccn1)B(O)O [bortezomib, [(1R)-3-methyl-1-[[(2S)-3-phenyl-2-(pyrazine-2-carbonylamino)propanoyl]amino]butyl]boronic acid]",effect on ANS- and TNFα+DT-triggered NLRP1 activation,N-TERT cells [1],abrogated ANS- and TNFα+DT-triggered NLRP1 activation
same,effect on ANS- and TNFα+DT-triggered NLRP1 activation,293T-ASC-GFP-NLRP1,abrogated ANS- and TNFα+DT-triggered NLRP1 activation
same,effect on ribotoxin-triggered NLRP1-NT destabilization,NLRP1-NT,could be blocked
"NS(=O)(=O)OC[C@@H]1C[C@@H](n2ccc3c(N[C@H]4CCc5ccccc54)ncnc32)C[C@@H]1O [MLN4924, ((1S,2S,4R)-4-(4-(((S)-2,3-dihydro-1H-inden-1-yl)amino)-7H-pyrrolo[2,3-d]pyrimidin-7-yl)-2-hydroxycyclopentyl)methyl sulfamate]",effect on ANS- and TNFα+DT-triggered NLRP1 activation,N-TERT cells [1],abrogated ANS- and TNFα+DT-triggered NLRP1 activation
same,effect on UVB-dependent NLRP1 activation,N-TERT cells [3],abrogated
same,effect on UVB triggered cell death (PI positive cells),N-TERT cells [3]; 18-hour incubation,blocks UVB triggered cell death and IL-1beta release
same,effect on UVB triggered IL-1beta release,N-TERT cells [3]; IL1β ELISA of cell media,blocks UVB triggered cell death and IL-1beta release
same,effect on ANS- and TNFα+DT-triggered NLRP1 activation,293T-ASC-GFP-NLRP1,abrogated ANS- and TNFα+DT-triggered NLRP1 activation
same,effect on ribotoxin-triggered NLRP1-NT destabilization,NLRP1-NT,could be blocked
"C/C(=C\[C@H](C)C(=O)C[C@H](O)CC1CC(=O)NC(=O)C1)[C@@H]1OC(=O)/C=C/CC/C=C/C=C\[C@@H]1C [LTM, Lactimidomycin]",mode of cell death (apoptosis / pyroptosis),"[2]; Annexin V staining and PI inclusion, immunoblot markers",caused both apoptosis and pyroptosis
same,morphological hallmarks of inflammasome activation and pyroptotic cell death,[2],rapidly induced the morphological hallmarks of inflammasome activation and pyroptotic cell death
same,fraction of pyroptotic cells,"[2]; single cell level, compared with VbP",comparable to that induced by VbP
same,"ASC-GFP speck formation, screen of cytotoxic chemicals",293T-ASC-GFP-NLRP1,identified two hits
"CC1=C[C@H]2O[C@@H]3[C@H](O)C[C@](C)([C@@]2(CO)[C@H](O)C1=O)[C@]31CO1 [DON, deoxynivalenol]",morphological hallmarks of inflammasome activation and pyroptotic cell death,[2],caused prominent inflammasome activation and pyroptosis
same,NLRP1^DR hyperphosphorylation,"NLRP1^DR; NLRP1DR-GFP in N-TERT cells, PhosTag SDS-PAGE",also led to NLRP1^DR hyperphosphorylation
same,band shift (phosphorylation) of PYD-DR1-GFP,NLRP1^DR; NLRP1 KO N-TERT cells expressing GFP-tagged PYD-DR1,band shift in PYD-DR1-GFP
"Cc1cn(-c2cc(NC(=O)c3ccc(C)c(Nc4nccc(-c5cccnc5)n4)c3)cc(C(F)(F)F)c2)cn1 [Nilotinib, 4-methyl-N-[3-(4-methylimidazol-1-yl)-5-(trifluoromethyl)phenyl]-3-[(4-pyridin-3-ylpyrimidin-2-yl)amino]benzamide]",effect on VbP-triggered pyroptosis,N-TERT cells [1],had no discernible effect on VbP-triggered pyroptosis
same,"effect on ANS- and DT-dependent inflammasome activation (ASC oligomerization, IL1β secretion)",N-TERT cells [1]; wild-type N-TERT cells,abrogated all measures of ANS- and DT-dependent inflammasome activation
same,NLRP1 PYD-DR1 phosphorylation under inhibitor,NLRP1^DR,loss of NLRP1 PYD-DR1 phosphorylation
same,effect on ANS-dependent ASC-GFP speck formation,293T-ASC-GFP-NLRP1; Nilotinib 0.1 μM,abrogated all measures of ANS- and DT-dependent inflammasome activation
"COC(=O)C[C@](O)(CCC(C)(C)O)C(=O)O[C@@H]1C(OC)=C[C@]23CCCN2CCc2cc4c(cc2[C@H]13)OCO4 [harringtonin, Harringtonine]",morphological hallmarks of inflammasome activation and pyroptotic cell death,[2],"none of the inhibitors that block the ribosome at the pre-elongation stages, including harringtonin, blasticidin and G418 caused any pyroptosis"
CC[C@H]1CN2CCc3cc(OC)c(OC)cc3[C@@H]2C[C@@H]1C[C@H]1NCCc2cc(OC)c(OC)cc21 [emetine],effect on ANS-induced IL1β secretion,N-TERT cells [1]; 150 μM emetine,completely abrogated
